The values that follow come from patent publication EP4745134A1 (Jiangsu Yahong Meditech Co., Ltd., priority 2023, dated 2025).

In experiment [1] the target is PRMT5-MTA (Homo sapiens, UniProt O14744). Briefly: Enzymatic inhibitory activity against PRMT5-MTA (AlphaScreen). The format is biochemical. The conditions noted are these: read-out: IC50. In short, it runs like this: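 PRMT5/[…] (1 nM) was preincubated for 30 min at room temperature with 1 µM […] and 2.5 µM SAM, then exposed to compound (10-point, 3-fold from 1000 nM) for 15 min at 23 °C. Histone H4 substrate (5 nM) was added and reacted for 45 min at 23 °C. Symmetric dimethyl-R3 H4 was detected by AlphaScreen and IC50 calculated.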

The subject of experiment [2] is HCT116-WT cells. In words: Inhibitory activity against cell proliferation (CellTiter Glo, 6 days), HCT116-WT. It is filed as cell-based. The conditions noted are these: 144 h, HCT116-WT cells, 6 days, CellTiter Glo; read-out: HCT116-WT IC50. In short, it runs like this:
(§1)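 Viability is measured by CellTiter Glo luminescence on day 7, following a 6-day treatment with compounds serially diluted 4-fold over 8 points from 10000 nM. Both lines are plated at 250 cells per well and cultured overnight beforehand.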

Experiment [3] concerns HCT116 MTAP KO cells. In words: Inhibitory activity against cell proliferation (CellTiter Glo, 6 days), HCT116 MTAP KO. It is filed as cell-based. The conditions noted are these: for IC50: Homo sapiens, HCT-116, 144 h, HCT116 MTAP KO cells, 6 days, CellTiter Glo, read-out: HCT116 MTAP KO IC50; for Selectivity HCT 116-WT/ HCT116 MTAP KO: ratio of IC50 HCT116-WT / HCT116 MTAP KO. The method in brief: as §1

Some results are limits rather than exact numbers.

Sequence of PRMT5-MTA (O14744 whole entry): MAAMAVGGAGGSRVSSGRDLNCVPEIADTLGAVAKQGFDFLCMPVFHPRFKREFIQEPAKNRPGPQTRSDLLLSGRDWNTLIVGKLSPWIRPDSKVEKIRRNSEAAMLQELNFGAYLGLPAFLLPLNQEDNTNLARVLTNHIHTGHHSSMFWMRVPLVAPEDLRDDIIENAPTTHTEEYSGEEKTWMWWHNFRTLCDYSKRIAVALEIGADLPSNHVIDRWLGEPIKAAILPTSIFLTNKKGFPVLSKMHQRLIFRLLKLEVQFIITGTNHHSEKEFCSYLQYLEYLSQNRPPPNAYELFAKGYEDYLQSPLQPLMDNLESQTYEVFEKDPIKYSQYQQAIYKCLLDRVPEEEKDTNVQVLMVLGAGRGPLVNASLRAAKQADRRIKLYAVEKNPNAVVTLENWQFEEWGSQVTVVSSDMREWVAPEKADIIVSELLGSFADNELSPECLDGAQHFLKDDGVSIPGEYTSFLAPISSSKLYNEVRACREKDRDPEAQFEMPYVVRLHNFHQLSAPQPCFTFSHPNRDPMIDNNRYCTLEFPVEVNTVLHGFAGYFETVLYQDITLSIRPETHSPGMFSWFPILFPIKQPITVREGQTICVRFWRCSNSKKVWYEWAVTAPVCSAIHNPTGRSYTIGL
Sequence of PRMT5-MTA (Q9BQA1 whole entry partner): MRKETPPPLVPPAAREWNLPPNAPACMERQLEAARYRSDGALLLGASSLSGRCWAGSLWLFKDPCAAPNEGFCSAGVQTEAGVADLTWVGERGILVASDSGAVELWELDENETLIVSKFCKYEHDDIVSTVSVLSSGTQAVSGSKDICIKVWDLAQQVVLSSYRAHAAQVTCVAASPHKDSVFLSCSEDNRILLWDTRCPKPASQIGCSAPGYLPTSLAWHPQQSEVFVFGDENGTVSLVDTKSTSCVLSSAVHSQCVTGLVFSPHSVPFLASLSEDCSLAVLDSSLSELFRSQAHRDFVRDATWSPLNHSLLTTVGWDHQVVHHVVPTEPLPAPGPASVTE

On to `Cc1cc2cc(C(=O)N(Cc3ccc(-c4cc[nH]c4)cn3)N(C)c3ncccn3)ccc2nc1N` [Example 191, N-((5-(1H-pyrrol-3-yl)pyridin-2-yl)methyl)-2-amino-N',3-dimethyl-N'-(pyrimidin-2-yl)quinoline-6-carbohydrazide], for which the IC50 in experiment [1] worked out at 0.0025 µM; in experiment [2], 2.34 µM; in experiment [3] it was 0.112 µM. Besides, the “Selectivity HCT 116-WT/ HCT116 MTAP KO” value in experiment [3] is reported as 20.90.

For the molecule `C=C1CN(C(=O)c2cc3c(cc2Cl)nc(N)c2cnn(C)c23)N(c2cccc(F)n2)C1` [Example 435, (4-amino-7-chloro-1-methyl-1H-pyrazolo [4,3-c]quinolin-8-yl)(2-(6-fluoropyridin-2-yl)-4-methylenepyrazolidin-1-yl)methanone], the IC50 in experiment [1] is 0.0073 µM; in experiment [2], 0.407 µM; in experiment [3] it was 0.015 µM. For the same molecule, the “Selectivity HCT 116-WT/ HCT116 MTAP KO” value in experiment [3] is 27.13.

As to `CC1CN(C(=O)c2cc3c(cc2F)nc(N)c2cnn(C)c23)N(c2ncccc2F)C1` (stereo not shown) [Example 393, (4-amino-7-fluoro-1-methyl-1H-pyrazolo [4,3-c]quinolin-8-yl)(2-(3-fluoropyridin-2-yl)-4-methylpyrazolidin-1-yl)methanone], the IC50 was found to be 0.0034 µM in experiment [1], 0.502 µM in experiment [2] and 0.0098 µM in experiment [3]. The “Selectivity HCT 116-WT/ HCT116 MTAP KO” value in experiment [3] came to 51.22.

In the case of `Cn1ncc2c(N)nc3cc(Cl)c(C(=O)N4CC5(CC5)CN4c4ncc(Cl)cc4F)cc3c21` [Example 347, (4-amino-7-chloro-1-methyl-1H-pyrazolo [4,3-c]quinolin-8-yl)(6-(5-chloro-3-fluoropyridin-2-yl)-5,6-diazaspiro[2.4]heptan-5-yl)methanone], the IC50 is 0.0071 µM in experiment [1], 1.28 µM in experiment [2] and 0.032 µM in experiment [3]. Moreover, in experiment [3], the “Selectivity HCT 116-WT/ HCT116 MTAP KO” value came out at 39.88.

On to `Cc1cc2nc(N)c3cnn(C)c3c2cc1C(=O)N1CC2(CN1c1ncccc1F)CC(F)(F)C2` [Example 410, (4-amino-1,7-dimethyl-1H-pyrazolo[4,3-c]quinolin-8-yl)(2,2-difluoro-7-(3-fluoropyridin-2-yl)-6,7-diazaspiro[3.4]octan-6-yl)methanone], for which the IC50 stood at 0.0052 µM in experiment [1], 0.219 µM in experiment [2] and 0.009 µM in experiment [3]. The “Selectivity HCT 116-WT/ HCT116 MTAP KO” value in experiment [3] stood at 24.33.

On to `Cc1cc2cc(C(=O)N(Cc3ccc(C(F)(F)F)cn3)Nc3ncccn3)ccc2nc1N` [Example 59, 2-amino-3-methyl-N'-(pyrimidin-2-yl)-N-((5-(trifluoromethyl)pyridin-2-yl)methyl) quinoline-6-carbohydrazide], for which the IC50 in experiment [1] was 0.002 µM; in experiment [2], 4.22 µM; in experiment [3] it was 0.257 µM. Also, in experiment [3], the “Selectivity HCT 116-WT/ HCT116 MTAP KO” value is 16.43.

On to `Cc1cc2nc(N)c3cnn(C)c3c2cc1C(=O)N1CC(=O)CN1c1ncccc1F` [Example 354, 1-(4-amino-1,7-dimethyl-1H-pyrazolo[4,3-c]quinoline-8-carbonyl)-2-(3-fluoropyridin-2-yl)pyrazolin-4-one], for which the IC50 in experiment [1] turned out to be 0.0038 µM; in experiment [2], 2.53 µM; in experiment [3] it was 0.062 µM. In addition, the “Selectivity HCT 116-WT/ HCT116 MTAP KO” value in experiment [3] is on record as 40.76.

As for `Cc1cc2cc(C(=O)N(Cc3ccc(C(F)(F)F)cn3)N(c3ncccn3)C3CCC3)ccc2nc1N` [Example 83, 2-amino-N'-cyclobutyl-3-methyl-N'-(pyrimidin-2-yl)-N-((5-(trifluoromethyl)pyridin-2-yl)methyl)quinoline-6-carbohydrazide], the IC50 in experiment [1] amounted to 0.0045 µM; in experiment [2], 1.93 µM; in experiment [3], 0.134 µM. Also, the “Selectivity HCT 116-WT/ HCT116 MTAP KO” value in experiment [3] was 14.39.

In the case of `C#Cc1cnc(N2CC(C)CN2C(=O)c2cc3c(cc2C)nc(N)c2cnn(C)c23)c(F)c1` (stereo not shown) [Example 494, (4-amino-1,7-dimethyl-1H-pyrazolo[4,3-c]quinolin-8-yl)(2-(5-ethynyl-3-fluoropyridin-2-yl)-4-methylpyrazolidin-1-yl)methanone], the IC50 in experiment [1] stood at 0.0046 µM; in experiment [2] it was 1 µM; in experiment [3], 0.029 µM. For the same molecule, the “Selectivity HCT 116-WT/ HCT116 MTAP KO” value in experiment [3] was determined as 34.62.

Turning to `CC1CN(C(=O)c2cc3c(cc2Cl)nc(N)c2cnn(C)c23)N(c2ccccc2F)C1` (stereo not shown) [Example 386, (4-amino-7-chloro-1-methyl-1H-pyrazolo [4,3-c]quinolin-8-yl)(2-(2-fluorophenyl)-4-methylpyrazolidin-1-yl)methanone], the IC50 in experiment [1] turned out to be 0.0062 µM; in experiment [2], 0.336 µM; in experiment [3], 0.013 µM. Further, the “Selectivity HCT 116-WT/ HCT116 MTAP KO” value in experiment [3] is on record as 25.85.

As for `Cc1cc2cc(C(=O)N(Cc3ccc(-c4ccc(N5CCCC5)nc4)cn3)N(C)c3ncccn3)ccc2nc1N` [Example 211, 2-amino-N',3-dimethyl-N'-(pyrimidin-2-yl)-N-((6'-(pyrrolidin-1-yl)-[3,3'-bipyridine]-6-yl)methyl)quinoline-6-carbohydrazide], the IC50 in experiment [1] turned out to be 0.0023 µM; in experiment [2], 1.59 µM; in experiment [3], 0.084 µM. Also, the “Selectivity HCT 116-WT/ HCT116 MTAP KO” value in experiment [3] is reported as 18.96.

Turning to `C=Cc1cccnc1N(C)N(Cc1ccc(C(F)(F)F)cn1)C(=O)c1ccc2nc(N)c(C)cc2c1` [Example 133, 2-amino-N',3-dimethyl-N-((5-(trifluoromethyl)pyridin-2-yl)methyl)-N'-(3-vinylpyridin-2-yl)quinoline-6-carbohydrazide], the IC50 in experiment [1] is 0.0036 µM; in experiment [2] it was 3.4 µM; in experiment [3] it was 0.312 µM. The “Selectivity HCT 116-WT/ HCT116 MTAP KO” value in experiment [3] is 10.89.

For `Cc1cc2cc(C(=O)N(Cc3ccc(-c4cnn(C(F)(F)F)c4)cn3)N(c3ncccn3)C3CC3)ccc2nc1N` [Example 216, 2-amino-N'-cyclopropyl-3-methyl-N'-(pyrimidin-2-yl)-N-((5-(1-(trifluoromethyl)-1H-pyrazol-4-yl)pyridin-2-yl)methyl)qui noline-6-carbohydrazide], the IC50 in experiment [1] stood at 0.0033 µM; in experiment [2] it was 0.627 µM; in experiment [3] it was 0.023 µM. For the same molecule, in experiment [3], the “Selectivity HCT 116-WT/ HCT116 MTAP KO” value was found to be 27.26.

As for `COC1CN(C(=O)c2cc3c(cc2Cl)nc(N)c2cnn(C)c23)N(c2ccccc2F)C1` (stereo not shown) [Example 437, (4-amino-7-chloro-1-methyl-1H-pyrazolo [4,3-c]quinolin-8-yl)(2-(2-fluorophenyl)-4-methoxypyrazolidin-1-yl)methanone], the IC50 was 0.0047 µM in experiment [1], 0.242 µM in experiment [2] and 0.013 µM in experiment [3]. Also, the “Selectivity HCT 116-WT/ HCT116 MTAP KO” value in experiment [3] worked out at 18.62.

Consider `Cc1cc2nc(N)c3cnn(C)c3c2cc1C(=O)N1CC(CO)CN1c1ncccc1F` (stereo not shown) [Example 358, (4-amino-1,7-dimethyl-1H-pyrazolo[4,3-c]quinolin-8-yl)(2-(3-fluoropyridin-2-yl)-4-(hydroxymethyl)pyrazolidin-1-yl)methanone], for which the IC50 in experiment [1] is 0.0067 µM; in experiment [2] it was more than 10 µM; in experiment [3], 0.303 µM. Moreover, the “Selectivity HCT 116-WT/ HCT116 MTAP KO” value in experiment [3] is listed as more than 33.00.

Take `COC1CN(C(=O)c2cc3c(cc2C)nc(N)c2cnn(C)c23)N(c2ncccc2F)C1` (stereo not shown) [Example 417, (4-amino-1,7-dimethyl-1H-pyrazolo[4,3-c]quinolin-8-yl)(2-(3-fluoropyridin-2-yl)-4-methoxypyrazolidin-1-yl)methanone]: the IC50 in experiment [1] stood at 0.0038 µM; in experiment [2], 0.79 µM; in experiment [3], 0.02 µM. In experiment [3], the “Selectivity HCT 116-WT/ HCT116 MTAP KO” value came out at 39.50.
